# Results as given in US10618916B2, “Heterocyclic compounds as immunomodulators” (Incyte Corporation, priority 2018, dated 2020).
# Experiments:
# [1] = target: PD-1/PD-L1 protein/protein interaction (recombinant human PD-L1 and human PD-1) (Homo sapiens (Human), UniProt Q9NZQ7); assay: Homogeneous Time-Resolved Fluorescence (HTRF) PD-1/PD-L1 binding assay
# Summary of the method: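 Human PD-L1 (19-238, C-His; 10 nM final) and PD-1 (25-167, C-Fc; 3 nM final) preincubated 40 min with inhibitor in PBS pH 7.4, 0.05% Tween-20, 0.1% BSA, 1% DMSO, 25 °C. Eu-anti-human IgG (1 nM) and anti-His-APC (20 nM) added for 60 min; 665/620 nm ratio; IC50 from percent-control curves.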
# [2] = tested on: U2OS/PD-L1 cells and Jurkat-PD-1-SHP cells; assay: Src homology region 2 domain-containing phosphatase (SHP) assay; assay type: cell-based; conditions: Homo sapiens, U2OS
# Summary of the method: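 U2OS/PD-L1 and Jurkat-PD-1-SHP cells (5000 each per well) were co-incubated with compound for 2 h at 37 °C in RPMI1640 with 1% FBS, 0.05% DMSO final. PathHunter chemiluminescence was read after 1 h at room temperature, and IC50 was fitted from percent of DMSO-control activity.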
# [3] = tested on: PD-L1 aAPC/CHO-K1 cells and Jurkat-PD-1-NFAT effector cells; assay: Nuclear factor of activated T-cells (NFAT) assay; assay type: cell-based; conditions: Cricetulus griseus, CHO-K1
# Summary of the method: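 CHO-K1 cells expressing PD-L1 aAPC were co-cultured with Jurkat-PD-1-NFAT effector cells in RPMI 1640 with 1% FBS and compound (0.4% DMSO; top concentration 2 μM) for 24 h at 37 °C. Bio-Glo luminescence was read, fold induction normalised to DMSO wells, and EC50 fitted from percent of control compound activity.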
# PD-L1 = PD-L1 (Homo sapiens (Human), UniProt Q9NZQ7); assay: PD-L1 whole blood internalization assay; assay type: cell-based; conditions: 24 HR, PD-L1 expression on CD14+ cells, human interferon γ
# Description: Example D. PD-L1 Whole Blood Internalization Assay
# To determine PD-L1 internalization in human whole blood, normal human blood (Biological Specialty Corp, Colmar. Pa.) was incubated in the presence or absence of a concentration range of test compounds and 1 ng/ml human interferon γ (R&D Systems Inc. Minn. […] Blood was then stained with PD-L1 (MIH1, eBioscience; or BD Biosciences San Jose, Calif.), CD14 (Life Technologies, Carlsbad, Calif.) for 30 minutes in the dark at room temperature. Whole Blood/red cells were lysed/fixed (lysis buffer BD Biosciences) for 5 minutes at 37° C. in the dark and then centrifuged at 1600 RPM for 5 minutes. Cells were resuspended in Stain Buffer (BD Bioscience, San Jose, Calif.) and transferred into 96 well round bottom plates (Corning). Cells were gated on CD14+(BD Biosciences) and PD-L1 expression determined by mean fluorescence intensity (MFI) (BD LSRFortessa™ X-20). IC50 determination was performed by fitting the curve of compound percent inhibition versus the log of the compound concentration using the GraphPad Prism 7.0 software.
# Sequence of PD-1/PD-L1 protein/protein interaction (recombinant human PD-L1 and human PD-1) (Q9NZQ7 19-238): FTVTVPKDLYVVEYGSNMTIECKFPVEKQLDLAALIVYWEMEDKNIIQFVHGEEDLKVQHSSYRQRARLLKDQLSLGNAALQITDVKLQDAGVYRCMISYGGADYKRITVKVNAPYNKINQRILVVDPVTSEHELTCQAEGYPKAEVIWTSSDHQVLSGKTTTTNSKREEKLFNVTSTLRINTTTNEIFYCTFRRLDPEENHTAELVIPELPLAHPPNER
# Sequence of PD-L1 (Q9NZQ7 19-290): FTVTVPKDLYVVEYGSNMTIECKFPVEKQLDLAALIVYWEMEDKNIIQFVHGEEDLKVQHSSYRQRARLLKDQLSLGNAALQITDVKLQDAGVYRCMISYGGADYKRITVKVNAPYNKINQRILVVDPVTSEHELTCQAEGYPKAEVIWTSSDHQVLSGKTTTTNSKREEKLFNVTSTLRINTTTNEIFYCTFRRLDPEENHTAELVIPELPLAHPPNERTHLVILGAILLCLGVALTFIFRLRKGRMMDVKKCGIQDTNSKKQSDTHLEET
Structure (SMILES),IC50 [1],IC50 [2],IC50 (PD-L1),EC50 [3]
"Cn1c(C(=O)Nc2cccc(-c3cccc(NC(=O)c4nc5c(n4C)CCN(CCC46CCC(C(=O)O)(CC4)C6)C5)c3Cl)c2Cl)nc2c1CCNC2 [Example 1, 4-(2-(2-((2,2′-dichloro-3′-(1-methyl-4,5,6,7-tetrahydro-1H-imidazo[4,5-c]pyridine-2-carboxamido)-[1,1′-biphenyl]-3-yl)carbamoyl)-1-methyl-1,4,6,7-tetrahydro-5H-imidazo[4,5-c]pyridin-5-yl)ethyl)bicyclo[2.2.1]heptane-1-carboxylic Acid]",≤ 5 nM,≤ 10 nM,≤ 10 nM,10 to 100 nM
"Cn1c(C(=O)Nc2cccc(-c3cccc(NC(=O)c4nc5c(n4C)CCN(C4CCOCC4)C5)c3Cl)c2Cl)nc2c1CCN(CCC13CCC(C(=O)O)(CC1)C3)C2 [Example 2, 4-(2-(2-((2,2′-dichloro-3′-(1-methyl-5-(tetrahydro-2H-pyran-4-yl)-4,5,6,7-tetrahydro-1H-imidazo[4,5-c]pyridine-2-carboxamido)-[1,1′-biphenyl]-3-yl)carbamoyl)-1-methyl-1,4,6,7-tetrahydro-5H-imidazo[4,5-c]pyridin-5-yl)ethyl)bicyclo[2.2.1]heptane-1-carboxylic Acid]",≤ 5 nM,≤ 10 nM,10 to 100 nM,10 to 100 nM
"Cn1c(C(=O)Nc2cccc(-c3cccc(NC(=O)c4nc5c(n4C)CCN(C4CCN(S(N)(=O)=O)CC4)C5)c3Cl)c2Cl)nc2c1CCN(CCC13CCC(C(=O)O)(CC1)C3)C2 [Example 8, 4-(2-(2-((2,2′-dichloro-3′-(1-methyl-5-(1-sulfamoylpiperidin-4-yl)-4,5,6,7-tetrahydro-1H-imidazo[4,5-c]pyridine-2-carboxamido)-[1,1′-biphenyl]-3-yl)carbamoyl)-1-methyl-1,4,6,7-tetrahydro-5H-imidazo[4,5-c]pyridin-5-yl)ethyl)bicyclo[2.2.1]heptane-1-carboxylic acid]",≤ 5 nM,≤ 10 nM,100 to 500 nM,10 to 100 nM
"Cn1c(C(=O)Nc2cccc(-c3cccc(NC(=O)c4nc5c(n4C)CCN(Cc4cc[nH]n4)C5)c3Cl)c2Cl)nc2c1CCN(CCC13CCC(C(=O)O)(CC1)C3)C2 [Example 9, 4-(2-(2-((3′-(5-((1H-pyrazol-3-yl)methyl)-1-methyl-4,5,6,7-tetrahydro-1H-imidazo[4,5-c]pyridine-2-carboxamido)-2,2′-dichloro-[1,1′-biphenyl]-3-yl)carbamoyl)-1-methyl-1,4,6,7-tetrahydro-5H-imidazo[4,5-c]pyridin-5-yl)ethyl)bicyclo[2.2.1]heptane-1-carboxylic acid]",≤ 5 nM,≤ 10 nM,10 to 100 nM,10 to 100 nM
"Cn1c(C(=O)Nc2cccc(-c3cccc(NC(=O)c4nc5c(n4C)CCN(C(CO)CO)C5)c3Cl)c2Cl)nc2c1CCN(CCC13CCC(C(=O)O)(CC1)C3)C2 [Example 10, 4-(2-(2-((2,2′-dichloro-3′-(5-(1,3-dihydroxypropan-2-yl)-1-methyl-4,5,6,7-tetrahydro-1H-imidazo[4,5-c]pyridine-2-carboxamido)-[1,1′-biphenyl]-3-yl)carbamoyl)-1-methyl-1,4,6,7-tetrahydro-5H-imidazo[4,5-c]pyridin-5-yl)ethyl)bicyclo[2.2.1]heptane-1-carboxylic acid]",≤ 5 nM,≤ 10 nM,10 to 100 nM,10 to 100 nM

# More lines, main results first:
IC50 [1],IC50 [2],IC50 (PD-L1),Structure (SMILES),EC50 [3]
5 to 10 nM,10 to 100 nM,100 to 500 nM,"Cn1c(C(=O)Nc2cccc(-c3cccc(NC(=O)c4nc5c(n4C)CCN(C[C@@H](O)CO)C5)c3Cl)c2Cl)nc2c1CCN(CCC13CCC(C(=O)O)(CC1)C3)C2 [Example 11, (R)-4-(2-(2-((2,2′-dichloro-3′-(5-(2,3-dihydroxypropyl)-1-methyl-4,5,6,7-tetrahydro-1H-imidazo[4,5-c]pyridine-2-carboxamido)-[1,1′-biphenyl]-3-yl)carbamoyl)-1-methyl-1,4,6,7-tetrahydro-5H-imidazo[4,5-c]pyridin-5-yl)ethyl)bicyclo[2.2.1]heptane-1-carboxylic acid]",10 to 100 nM
≤ 5 nM,≤ 10 nM,10 to 100 nM,"Cn1c(C(=O)Nc2cccc(-c3cccc(NC(=O)c4nc5c(n4C)CCN(C[C@H](O)CO)C5)c3Cl)c2Cl)nc2c1CCN(CCC13CCC(C(=O)O)(CC1)C3)C2 [Example 12, (S)-4-(2-(2-((2,2′-dichloro-3′-(5-(2,3-dihydroxypropyl)-1-methyl-4,5,6,7-tetrahydro-1H-imidazo[4,5-c]pyridine-2-carboxamido)-[1,1′-biphenyl]-3-yl)carbamoyl)-1-methyl-1,4,6,7-tetrahydro-5H-imidazo[4,5-c]pyridin-5-yl)ethyl)bicyclo[2.2.1]heptane-1-carboxylic acid]",10 to 100 nM
≤ 5 nM,≤ 10 nM,10 to 100 nM,"C[C@@H](O)CN1CCc2c(nc(C(=O)Nc3cccc(-c4cccc(NC(=O)c5nc6c(n5C)CCN(CCC57CCC(C(=O)O)(CC5)C7)C6)c4Cl)c3Cl)n2C)C1 [Example 13, (R)-4-(2-(2-((2,2′-dichloro-3′-(5-(2-hydroxypropyl)-1-methyl-4,5,6,7-tetrahydro-1H-imidazo[4,5-c]pyridine-2-carboxamido)-[1,1′-biphenyl]-3-yl)carbamoyl)-1-methyl-1,4,6,7-tetrahydro-5H-imidazo[4,5-c]pyridin-5-yl)ethyl)bicyclo[2.2.1]heptane-1-carboxylic Acid]",≤ 10 nM
≤ 5 nM,≤ 10 nM,10 to 100 nM,"C[C@H](O)CN1CCc2c(nc(C(=O)Nc3cccc(-c4cccc(NC(=O)c5nc6c(n5C)CCN(CCC57CCC(C(=O)O)(CC5)C7)C6)c4Cl)c3Cl)n2C)C1 [Example 14, (S)-4-(2-(2-((2,2′-dichloro-3′-(5-(2-hydroxypropyl)-1-methyl-4,5,6,7-tetrahydro-1H-imidazo[4,5-c]pyridine-2-carboxamido)-[1,1′-biphenyl]-3-yl)carbamoyl)-1-methyl-1,4,6,7-tetrahydro-5H-imidazo[4,5-c]pyridin-5-yl)ethyl)bicyclo[2.2.1]heptane-1-carboxylic acid]",10 to 100 nM
≤ 5 nM,≤ 10 nM,10 to 100 nM,"Cn1c(C(=O)Nc2cccc(-c3cccc(NC(=O)c4nc5c(n4C)CCN(CCC46CCC(C(=O)O)(CC4)C6)C5)c3Cl)c2Cl)nc2c1CCN(CCO)C2 [Example 15, 4-(2-(2-((2,2′-dichloro-3′-(5-(2-hydroxyethyl)-1-methyl-4,5,6,7-tetrahydro-1H-imidazo[4,5-c]pyridine-2-carboxamido)-[1,1′-biphenyl]-3-yl)carbamoyl)-1-methyl-1,4,6,7-tetrahydro-5H-imidazo[4,5-c]pyridin-5-yl)ethyl)bicyclo[2.2.1]heptane-1-carboxylic acid]",10 to 100 nM
≤ 5 nM,≤ 10 nM,10 to 100 nM,"Cn1c(C(=O)Nc2cccc(-c3cccc(NC(=O)c4nc5c(n4C)CCN(CCC46CCC(C(=O)O)(CC4)C6)C5)c3Cl)c2Cl)nc2c1CCN(CCCO)C2 [Example 16, 4-(2-(2-((2,2′-dichloro-3′-(5-(3-hydroxypropyl)-1-methyl-4,5,6,7-tetrahydro-1H-imidazo[4,5-c]pyridine-2-carboxamido)-[1,1′-biphenyl]-3-yl)carbamoyl)-1-methyl-1,4,6,7-tetrahydro-5H-imidazo[4,5-c]pyridin-5-yl)ethyl)bicyclo[2.2.l]-heptane-1-carboxylic acid]",≤ 10 nM
≤ 5 nM,≤ 10 nM,10 to 100 nM,"Cn1c(C(=O)Nc2cccc(-c3cccc(NC(=O)c4nc5c(n4C)CCN(CCC46CCC(C(=O)O)(CC4)C6)C5)c3Cl)c2Cl)nc2c1CCN(CCC13CCC(C(=O)O)(CC1)C3)C2 [Example 17, 4,4′-(((((2,2′-dichloro-[1,1′-biphenyl]-3,3′-diyl)bis(azanediyl))bis(carbonyl))bis(1-methyl-1,4,6,7-tetrahydro-5H-imidazo[4,5-c]pyridine-2,5-diyl))bis(ethane-2,1-diyl))bis(bicyclo[2.2.1]heptane-1-carboxylic acid)]",10 to 100 nM
